Measured values as given in patent publication US9199959B2, “HIV replication inhibitor” (Shionogi & Co., Ltd., priority 2011, dated 2015).

Legend:
CYP1A2 = target: T1, CYP1A2 (Homo sapiens, UniProt P05177); experiment: CYP inhibition assay, 7-ethoxyresorufin O-deethylation; assay type: in vitro ADME; conditions: pooled human liver microsomes, probe 7-ethoxyresorufin (O-deethylation), 0.5 μmol/L, pooled human hepatic microsome
T1 construct: enzyme, pooled human hepatic microsome 0.2 mg protein/mL; from tissue; host or cells: pooled human liver microsomes
T1 sequence (P05177 1-516): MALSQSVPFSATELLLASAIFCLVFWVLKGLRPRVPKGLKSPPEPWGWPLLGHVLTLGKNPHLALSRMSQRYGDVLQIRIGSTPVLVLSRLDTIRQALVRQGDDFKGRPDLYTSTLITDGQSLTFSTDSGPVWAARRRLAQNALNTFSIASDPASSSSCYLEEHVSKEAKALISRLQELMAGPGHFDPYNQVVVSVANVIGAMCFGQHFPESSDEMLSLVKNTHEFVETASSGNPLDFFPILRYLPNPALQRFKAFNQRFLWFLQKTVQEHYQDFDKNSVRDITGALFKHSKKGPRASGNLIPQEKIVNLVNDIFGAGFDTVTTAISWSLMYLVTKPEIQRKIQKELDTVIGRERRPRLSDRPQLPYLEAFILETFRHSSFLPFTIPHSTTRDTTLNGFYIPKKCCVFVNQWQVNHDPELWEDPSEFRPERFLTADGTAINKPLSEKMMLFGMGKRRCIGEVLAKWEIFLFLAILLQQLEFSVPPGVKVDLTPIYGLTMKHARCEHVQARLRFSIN
Procedure: (§1) Using commercially available pooled human hepatic microsome, and employing, as markers, 7-ethoxyresorufin O-deethylation (CYP1A2), tolbutamide methyl-hydroxylation (CYP2C9), mephenytoin 4′-hydroxylation (CYP2C19), dextromethorphan O-demethylation (CYP2D6), and terfenedine hydroxylation (CYP3A4) as typical substrate metabolism reactions of human main five CYP enzyme forms (CYP1A2, 2C9, 2C19, 2D6, 3A4), an inhibitory degree of each metabolite production amount by a test compound was assessed.
(§2) The reaction conditions were as follows: substrate, 0.5 μmol/L ethoxyresorufin (CYP1A2), 100 μmol/L tolbutamide (CYP2C9), 50 μmol/L S-mephenytoin (CYP2C19), 5 μmol/L dextromethorphan (CYP2D6), 1 μmol/L terfenedine (CYP3A4); reaction time, 15 minutes; reaction temperature, 37° C.; enzyme, pooled human hepatic microsome 0.2 mg protein/mL; test drug concentration, 1, 5, 10, 20 μmol/L (four points).
(§3) Each five kinds of substrates, human hepatic microsome, and a test drug in 50 mmol/L Hepes buffer as a reaction solution was added to a 96-well plate as the composition as described above, NADPH, as a cofactor was added to initiate metabolism reactions as markers and, after the incubation at 37° C. for 15 minutes, a methanol/acetonitrile=1/1 (v/v) solution was added to stop the reaction. After the centrifugation at 3000 rpm for 15 minutes, resorufin (CYP1A2 metabolite) in the supernatant was quantified by a fluorescent multilabel counter and tolbutamide hydroxide (CYP2C9 metabolite), mephenytoin 4′ hydroxide (CYP2C19 metabolite), dextrorphan (CYP2D6 metabolite), and terfenadine alcohol (CYP3A4 metabolite) were quantified by LC/MS/MS.
(§4) A reaction system containing only DMSO which is a solvent for dissolving a drug was adopted as a control (100%), and the remaining activity (%) was calculated, then IC50 was calculated by reverse presumption with a logistic model using a concentration and an inhibition rate.

CYP2D6 = target: T2, CYP2D6 (Homo sapiens, UniProt P10635); experiment: CYP inhibition assay, dextromethorphan O-demethylation; assay type: in vitro ADME; conditions: pooled human liver microsomes, probe dextromethorphan (O-demethylation), 5 μmol/L, pooled human hepatic microsome
T2 construct: enzyme, pooled human hepatic microsome 0.2 mg protein/mL; from tissue; host or cells: pooled human liver microsomes
T2 sequence (P10635 whole entry): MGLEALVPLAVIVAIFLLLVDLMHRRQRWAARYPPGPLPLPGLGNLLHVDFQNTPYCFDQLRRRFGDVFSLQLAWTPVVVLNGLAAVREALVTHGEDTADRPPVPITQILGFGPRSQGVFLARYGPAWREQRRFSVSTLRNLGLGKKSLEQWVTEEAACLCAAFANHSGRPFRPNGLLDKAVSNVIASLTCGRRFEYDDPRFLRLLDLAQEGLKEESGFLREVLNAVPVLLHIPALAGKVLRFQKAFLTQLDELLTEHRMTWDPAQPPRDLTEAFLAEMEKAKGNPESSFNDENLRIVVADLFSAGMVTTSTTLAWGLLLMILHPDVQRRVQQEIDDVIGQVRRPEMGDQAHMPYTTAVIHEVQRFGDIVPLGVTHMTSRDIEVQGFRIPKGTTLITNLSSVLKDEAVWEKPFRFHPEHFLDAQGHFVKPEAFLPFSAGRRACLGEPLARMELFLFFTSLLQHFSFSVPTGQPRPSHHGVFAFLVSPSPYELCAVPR
Procedure: as §1, §2, §3, §4

[1] = Solubility test, 1% DMSO addition, artificial intestinal juice pH 6.8; assay type: physicochemical; conditions: artificial intestinal juice with 1% DMSO, fassgf or other biorelevant, kinetic from dmso stock; pH 6.8, 1% DMSO addition, 16 hours at 25° C.
Procedure: The solubility of each compound was determined under 1% DMSO addition conditions. A 10 mmol/L solution of the compound was prepared with DMSO, and 6 μL of the solution was added to 594 μL of an artificial intestinal juice (water and a 118 mL solution of 0.2 mol/L NaOH reagent are added to 250 mL of 0.2 mol/L potassium dihydrogen phosphate reagent to reach 1000 mL) with a pH of 6.8. The mixture is left standing for 16 hours at 25° C., and the mixture is vacuum-filtered. The filtrate is two-fold diluted with methanol/water=1/1 (v/v), and the compound concentration in the filtrate is measured with HPLC or LC/MS/MS by the absolute calibration method.

CYP3A4 = target: T3, CYP3A4 (Homo sapiens, UniProt P08684); experiment: CYP inhibition assay, terfenedine hydroxylation; assay type: in vitro ADME; conditions: pooled human liver microsomes, probe terfenedine (hydroxylation), 1 μmol/L, pooled human hepatic microsome
T3 construct: enzyme, pooled human hepatic microsome 0.2 mg protein/mL; from tissue; host or cells: pooled human liver microsomes
T3 sequence (P08684 whole entry): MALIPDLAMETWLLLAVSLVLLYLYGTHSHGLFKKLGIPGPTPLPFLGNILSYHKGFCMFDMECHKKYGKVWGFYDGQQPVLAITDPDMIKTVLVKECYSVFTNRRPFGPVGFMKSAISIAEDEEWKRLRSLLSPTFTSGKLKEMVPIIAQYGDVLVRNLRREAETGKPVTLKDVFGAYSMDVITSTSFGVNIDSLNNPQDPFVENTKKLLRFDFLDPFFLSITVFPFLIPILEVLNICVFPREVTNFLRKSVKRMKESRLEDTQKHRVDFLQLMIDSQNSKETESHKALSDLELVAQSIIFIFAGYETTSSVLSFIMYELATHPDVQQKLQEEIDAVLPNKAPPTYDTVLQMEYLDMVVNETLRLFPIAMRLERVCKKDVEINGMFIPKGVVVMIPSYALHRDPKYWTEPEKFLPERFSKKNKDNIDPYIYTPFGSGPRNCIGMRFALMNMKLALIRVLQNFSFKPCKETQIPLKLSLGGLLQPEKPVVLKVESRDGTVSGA
Procedure: as §1, §2, §3, §4

CYP2C19 = target: T4, CYP2C19 (Homo sapiens, UniProt P33261); experiment: CYP inhibition assay, mephenytoin 4'-hydroxylation; assay type: in vitro ADME; conditions: pooled human liver microsomes, probe S-mephenytoin (4'-hydroxylation), 50 μmol/L, pooled human hepatic microsome
T4 construct: enzyme, pooled human hepatic microsome 0.2 mg protein/mL; from tissue; host or cells: pooled human liver microsomes
T4 sequence (P33261 whole entry): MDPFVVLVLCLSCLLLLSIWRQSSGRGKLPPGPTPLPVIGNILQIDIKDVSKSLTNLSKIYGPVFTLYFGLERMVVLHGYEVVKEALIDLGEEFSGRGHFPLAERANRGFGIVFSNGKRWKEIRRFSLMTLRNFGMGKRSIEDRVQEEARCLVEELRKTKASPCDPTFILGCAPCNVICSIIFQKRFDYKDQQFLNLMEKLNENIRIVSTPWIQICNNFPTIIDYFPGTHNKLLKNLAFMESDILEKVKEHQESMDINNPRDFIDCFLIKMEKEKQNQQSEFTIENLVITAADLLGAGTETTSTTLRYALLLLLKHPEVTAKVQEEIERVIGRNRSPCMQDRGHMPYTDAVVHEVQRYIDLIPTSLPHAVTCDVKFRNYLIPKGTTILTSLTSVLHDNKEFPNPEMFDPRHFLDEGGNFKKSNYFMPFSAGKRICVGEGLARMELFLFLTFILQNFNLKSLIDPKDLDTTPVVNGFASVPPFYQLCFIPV
Procedure: as §1, §2, §3, §4

HIV (HTLV-III B strain) = experiment: HIV replication inhibition assay (MTT, MT-4 cells); assay type: cell-based; conditions: Human immunodeficiency virus 1, MT4, 96 h, four days culture, concentration at which cell cytotoxicity by virus is inhibited 50%
Procedure: HIV (HTLV-III B strain) persistent infected human T cell strain Molt-4 clone 8 was cultured in 10% Fetal Bovine Serum-containing RPMI-1640 medium and the supernatant was filtrated, then the virus titer was measured and the solution was stored at −80° C. Each anti-human immunodeficiency virus active substance was diluted with the above cultured medium to the designated concentration, which was dispensed into 96 well micro plate by 50 μL. Next, a MT-4 cell suspended liquid was dispensed by 100 μL (2.5×10^4 cells), then the above HIV-containing supernatant diluted with the above cultured medium was added thereto by 50 μL (60 pfu (plaque forming unit)).
The obtained mixture was cultured at 37° C. in CO2 incubator for four days, then 3-(4,5-dimehylthiazole-2-yl)-2,5-diphenyltetrazolynium bromide (MTT) 5 mg/mL in PBS was added to each well by 30 μL, followed by 1 hr-cultivation. In this step, as formazan was precipitated by reduction of MTT in living cells, the cell supernatant was removed from all well by 150 μL, then a 150 μL of solution (10% Triton X-100 and […]) was added thereto, followed by shaking with a plate mixer, to elute formazan. The formazan was measured with a microreader at OD: 560 nm and 690 nm (wavelength) and the result was compared with the reference. EC50 means the compound concentration at which cell cytotoxicity by virus is inhibited 50%.

Structure (SMILES) | IC50 at 15 min (CYP1A2) | IC50 at 15 min (CYP2D6) | solubility at 16 h [1] | IC50 at 15 min (CYP3A4) | IC50 at 15 min (CYP2C19) | EC50 (HIV (HTLV-III B strain))
Cc1ccc(-c2c(N)cc(C(OC(C)(C)C)C(=O)O)c(-c3ccc(C)c(C)c3)c2C)cc1C (stereo not shown) [Compound I-2] | ≥ 20000 nM | ≥ 20000 nM | ≥ 50 µM | ≥ 20000 nM | ≥ 20000 nM | 
CC(=O)Nc1cc(C(OC(C)(C)C)C(=O)O)c(-c2ccc(C)c(C)c2)c(C)c1-c1ccc(C)c(C)c1 (stereo not shown) [Compound I-3] | ≥ 20000 nM | ≥ 20000 nM | ≥ 50 µM | ≥ 20000 nM | ≥ 20000 nM | 
CC(=O)Nc1c(Br)c(C(OC(C)(C)C)C(=O)O)c(-c2ccc(C)c(C)c2)c(C)c1-c1ccc(C)c(C)c1 (stereo not shown) [Compound I-4] | ≥ 20000 nM | ≥ 20000 nM | ≥ 50 µM | ≥ 20000 nM | ≥ 20000 nM | 13 nM
COC(=O)Nc1cc(C(OC(C)(C)C)C(=O)O)c(-c2ccc(C)c(C)c2)c(C)c1-c1ccc(C)c(C)c1 (stereo not shown) [Compound I-5] | ≥ 20000 nM | ≥ 20000 nM |  | ≥ 20000 nM | ≥ 20000 nM | 
Cc1ccc(-c2c(C)c(-c3ccc(C)c(C)c3)c(C(OC(C)(C)C)C(=O)O)c(C)c2N)cc1C (stereo not shown) [Compound I-7] | ≥ 20000 nM | ≥ 20000 nM |  | ≥ 20000 nM | ≥ 20000 nM | 18 nM
CC(=O)N(C)c1c(C)c(C(OC(C)(C)C)C(=O)O)c(-c2ccc(C)c(C)c2)c(C)c1-c1ccc(C)c(C)c1 (stereo not shown) [Compound I-8] | ≥ 20000 nM | ≥ 20000 nM |  | ≥ 20000 nM | ≥ 20000 nM | 
Cc1ccc(-c2c(C(OC(C)(C)C)C(=O)O)cc(N(C)C(=O)C(C)C)c(-c3ccc(C)c(C)c3)c2C)cc1C (stereo not shown) [Compound I-9] | ≥ 20000 nM | ≥ 20000 nM |  | ≥ 20000 nM | ≥ 20000 nM | 
Cc1ccc(-c2c(NC(=O)C(C)C)cc(C(OC(C)(C)C)C(=O)O)c(-c3ccc(C)c(C)c3)c2C)cc1C (stereo not shown) [Compound I-10] | ≥ 20000 nM | ≥ 20000 nM | ≥ 50 µM | ≥ 20000 nM | ≥ 20000 nM | 
CNc1c(C)c(C(OC(C)(C)C)C(=O)O)c(-c2ccc(C)c(C)c2)c(C)c1-c1ccc(C)c(C)c1 (stereo not shown) [Compound I-14] |  |  |  |  |  | 19 nM
Cc1cc(NS(=O)(=O)c2cccc3ccccc23)c(C)c(C(OC(C)(C)C)C(=O)O)c1-c1ccc2c(c1)CCCO2 (stereo not shown) [Compound I-60] |  |  |  |  |  | 4 nM
Cc1cc(NS(=O)(=O)c2cccc3cccnc23)c(C)c(C(OC(C)(C)C)C(=O)O)c1-c1ccc2c(c1)CCCO2 (stereo not shown) [Compound I-66] |  |  |  |  |  | 4.5 nM
Cc1cc(NS(=O)(=O)CC2CCCCC2)c(C)c(C(OC(C)(C)C)C(=O)O)c1-c1ccc2c(c1)CCCO2 (stereo not shown) [Compound I-82] |  |  |  |  |  | 4.1 nM
Cc1cc(NS(=O)(=O)c2cccc(Cl)c2Cl)c(C)c(C(OC(C)(C)C)C(=O)O)c1-c1ccc2c(c1)CCCO2 (stereo not shown) [Compound I-121] |  |  |  |  |  | 5.2 nM
Cc1c(-c2c(C)c(C)c(NS(=O)(=O)c3cccc4ccccc34)c(C)c2C(OC(C)(C)C)C(=O)O)ccc2c1CCCO2 (stereo not shown) [Compound I-140] |  |  |  |  |  | 1.9 nM
Cc1c(-c2c(C)c(C)c(NS(=O)(=O)c3cccc4ccccc34)c(C)c2[C@H](OC(C)(C)C)C(=O)O)ccc2c1CCCO2 [Compound I-145] |  |  |  |  |  | 1.2 nM
Cc1cc(NS(=O)(=O)CC2CCCCC2)c(C)c(C(OC(C)(C)C)C(=O)O)c1-c1ccc2c(c1C)CCCO2 (stereo not shown) [Compound I-150] |  |  |  |  |  | 2.3 nM
Cc1ccc(-c2c(C)c(C3=CCCCCC3)c(C(OC(C)(C)C)C(=O)O)c(C)c2NS(C)(=O)=O)cc1C (stereo not shown) [Compound I-168] |  |  |  |  |  | 3.9 nM
Cc1ccc(-c2c(C)c(-c3ccc4c(c3C)CCCO4)c(C(OC(C)(C)C)C(=O)O)c(C)c2NS(C)(=O)=O)cc1C (stereo not shown) [Compound I-215] |  |  |  |  |  | 2.2 nM
Cc1c(OCc2ccccc2)c(N(C)S(C)(=O)=O)c(C)c(C(OC(C)(C)C)C(=O)O)c1-c1ccc2c(c1)CCCO2 (stereo not shown) [Compound I-263] |  |  |  |  |  | 2.5 nM
COc1ccc(-c2c(C)cc(NS(=O)(=O)CC3CCCCC3)c(C)c2C(OC(C)(C)C)C(=O)O)cc1 (stereo not shown) [Compound I-285] |  |  |  |  |  | 4.5 nM
Cc1cc(-c2c(C)c(-c3ccc4c(c3C)CCCO4)c([C@H](OC(C)(C)C)C(=O)O)c(C)c2NS(C)(=O)=O)ccc1F [Compound I-305] |  |  |  |  |  | 2 nM
Cc1cc(-c2c(C)c(-c3cc(F)c4c(c3C)CCCO4)c([C@H](OC(C)(C)C)C(=O)O)c(C)c2NS(C)(=O)=O)ccc1F [Compound I-310] |  |  |  |  |  | 4 nM
Cc1cc2c(c(C(OC(C)(C)C)C(=O)O)c1-c1ccc3c(c1)CCCO3)CCCN2S(=O)(=O)c1cccc2ccccc12 (stereo not shown) [II-14] |  |  |  |  |  | 4.8 nM
Cc1cc2c(c(C(OC(C)(C)C)C(=O)O)c1-c1ccc3c(c1)CCCO3)CCCN2S(=O)(=O)c1cccc2cccnc12 (stereo not shown) [II-17] |  |  |  |  |  | 2.5 nM
Cc1ccc(-c2c(C)c(-c3ccc(C)c(C)c3)c3c(c2[C@H](OC(C)(C)C)C(=O)O)CCC(=O)N3C)cc1C [II-42] |  |  |  |  |  | 4.4 nM
